Our source for the Ligin degradation values is patent US20010018956A1, “Multi-component system for modifying, degrading or bleaching lignin, lignin-containing materials or similar substances and processes for its use” (CONSORTIUM FUR ELEKTROCHEMISCHE INDUSTRIE GmbH, priority 1996, published 2001).

A short description of the data set: Enzymatic bleaching of softwood sulfate pulp with laccase and mediator; kappa number determined after NaOH extraction. The conditions noted are these: laccase from Trametes versicolor 15 U/g of pulp; incubation time 2 hours; pH 4.5; 45° C.; oxygen pressure 1-10 bar; mediator dosage per 5 g of pulp as in table.

Method: 5 g of bone-dry pulp (softwood O2 delignified), pulp consistency 30% (about 17 g moist) are added to the following solutions:
A) 56.5 mg of N-hydroxyacetanilide are added to 20 ml of tap water, while stirring, and the pH is adjusted with 0.5 mol/l of H2SO4 solution such that pH 4.5 results after addition of the pulp and the enzyme.
B) An amount of laccase from Trametes versicolor is added to 5 ml of tap water such that an activity of 15 U (1 U=conversion of 1 μmol of ABTS/minute/ml of enzyme) per g of pulp results.
Solutions A and B are brought together and topped up to 33 ml. After addition of the pulp, the mixture is mixed with a dough kneader for 2 minutes.
The pulp is then introduced into a reaction bomb preheated to 45° C. and incubated under an increased oxygen pressure of 1-10 bar for 1-4 hours.
Thereafter, the pulp is washed over a nylon screen (30 gm) and extracted for 1 hour at 60° C. at a pulp consistency of 2% with 8% of NaOH per g of pulp.
After renewed washing of the pulp, the kappa number is determined.

`CC(=O)N(O)c1ccc(C#N)cc1` [N-hydroxy-4-cyanoacetanilide]: the Ligin degradation is reported as 35.6%.
In the case of `O=C(Oc1ccccc1)N(O)c1ccccc1` [Phenyl N-hydroxy-N-phenylcarbamate] it was 20.0%.
